Columns and labels:
9L gliosarcoma cells = test: Accumulation of ALA-induced PpIX in rat subcutaneous tumor model (HPLC analysis and fluorescence observation); type: in vivo
Experimental: As experimental animals, inbred male Fischer 344 rats (8 week old) (SLC, Inc. (Hamamatsu, Japan)) were used and were inoculated with 9L gliosarcoma cells. […] In short, 9L gliosarcoma cells (1×10^6 cells) were transplanted into the skin on the dorsal side of each Fischer 344 rat, so as to produce a rat subcutaneous tumor model.
Specifically, after the transplanted tumor had grown to a size of 1 cm in diameter, 100 mg/kg body weight of ALA was injected into the caudal vein of each rat (i.v.). Three hours later, the rat was anesthetized, and a tumor portion, excluding a portion covering the dorsal skin, was excised from the rat. The tumor portion was immediately subjected to a freezing treatment using dry ice, and the resultant was then preserved at −80° C. in a dark place.
Specifically, a tumor sample (approximately 1 mm in diameter) was treated with 200 μl of 0.1 M NaOH, and it was then homogenized on ice, using Powermasher II (Assist, Tokyo, Japan). […]
For the elution, Solvent A was used for 5 minutes, then, linear gradient Solvent B (0% to 100%) was used for 25 minutes, and thereafter, Solvent B was used for 10 minutes. The flow rate for elution was maintained at constant, using a fluorospectro-photometer (excited at 404 nm, and detected at 624 nm). […]

9L cells = test: Cellular ROS levels after ionizing irradiation (DCFD, flow cytometry), 9L; type: cell-based, rat; settings: for relative MFI of DCF fluorescence 12 hours after ionizing irradiation, timing study: 10 Gy
Experimental: Intracellular ROS production was evaluated using the oxidant-sensitive fluorescence probe DCFD and flow cytometry (Yamamori T, Yasui H, Yamazumi M, et al: Ionizing radiation induces mitochondrial reactive oxygen species production accompanied by upregulation of mitochondrial electron transport chain function and mitochondrial content under control of the cell cycle checkpoint. Free Radic Biol Med 53: 260-270, 2012.). The cells were seeded on a 100-mm culture dish, and using an X-ray irradiation apparatus (MBR-1520R; Hitachi, Tokyo, Japan) (0.67 Gy/min), the cells were then irradiated with a radiation of 10 Gy in a dark room. During the ionizing irradiation, the culture dish was maintained at a room temperature in a dark container. In the case of a 5-ALA and ionizing irradiation group (RT,12 h+ALA), the cells were treated with 1 mM 5-ALA for 4 hours, then, immediately after the treatment, the cells were irradiated with ionizing radiation, and were then incubated together with 10 μM DCFD at 37° C. for 15 minutes, followed by washing with PBS twice. Thereafter, as described above, the cells were analyzed using a flow cytometer (excitation: 488 nm; radiation: 525/50 nm band-pass filter). Control cells were not exposed to ionizing radiation or 5-ALA. In a 5-ALA group, the cells were treated with 1 mM 5-ALA for 4 hours, but were not exposed to ionizing radiation. The control cells and the cells of the 5-ALA group were treated with DCFD in the same manner as described above. In order to prevent the photoactivation of 5-ALA-induced PpIX and DCFD, all procedures were carried out in a dark room. The flow cytometric data were analyzed using FlowJo (Tree Star Inc., Ashland, Oreg., USA). The MFI of the DCF fluorescence in the cells, with respect to that in control cells, was calculated for each cell line.
The cells were seeded on a 100-mm culture dish, and were then exposed to an ionizing radiation of 10 Gy. The incubation time (4 h) of 1 mM 5-ALA was the same among individual groups, and three types of 5-ALA treatment times were initiated: i) 5-ALA treatment immediately before ionizing irradiation [RT+ALA (pre) group]; ii) 5-ALA treatment immediately after ionizing irradiation [RT+ALA (4 h) group]; and iii) 5-ALA treatment 8 hours after ionizing irradiation [RT+ALA (12 h) group]. In each group, twelve hours after the ionizing irradiation, the cells were incubated together with 10 μM DCFD at 37° C. for 15 minutes, and were then washed with PBS twice. Immediately after the washing, as described above, DCF fluorescence was analyzed using a flow cytometer. Control cells were not treated with ionizing radiation or 5-ALA. In a group involving only ionizing irradiation (RT), the cells were exposed to ionizing radiation, without performing 5-ALA treatments, and were then treated with DCFD twelve hours after the exposure to the ionizing radiation in the same manner as described above. All procedures were carried out in a dark room. The flow cytometric data were analyzed using FlowJo software. The MFI of the DCF fluorescence in the cells, with respect to that in control cells, was calculated for each cell line.

NCC(=O)CCC(=O)O [ALA, 5-aminolevulinic acid]
amount of PpIX in tumor induced by ALA (HPLC) (9L gliosarcoma cells; 3 hours after intravenous administration of ALA 100 mg/kg body weight, mean±SE): 3.66±0.91 pmol/mg protein
fluorescence of subcutaneous tumor under 410 nm light (9L gliosarcoma cells; 3 hours after intravenous administration of ALA, compared with control tumor without ALA): strong fluorescence
relative MFI of DCF fluorescence (cellular ROS) (9L cells; 1 mM 5-ALA 4 hours, without ionizing irradiation, relative to control cells, average±SE): 1.19±0.07
relative MFI of DCF fluorescence 12 hours after ionizing irradiation, timing study (9L cells; 5-ALA treatment 8 hours after ionizing irradiation, RT+ALA (12 h) group): 1.58±0.11
relative MFI of DCF fluorescence 12 hours after ionizing irradiation, timing study (9L cells; 5-ALA treatment immediately after ionizing irradiation, RT+ALA (4 h) group): 1.57±0.05
relative MFI of DCF fluorescence 12 hours after ionizing irradiation, timing study (9L cells; 5-ALA treatment immediately before ionizing irradiation, RT+ALA (pre) group): 1.93±0.10
relative MFI of DCF fluorescence (cellular ROS) (9L cells; 12 hours after 10 Gy ionizing irradiation with 5-ALA pre-treatment (1 mM, 4 hours), p=0.009 vs RT 12 h): 1.91±0.19

Reference: patent US20170056351A1, “COMPOSITION FOR INDUCING TUMOR IMMUNITY” (UNIVERSITY OF OCCUPATIONAL AND ENVIRONMENTAL HEALTH, JAPAN, priority 2014, published 2017)
